Data set [1] relates to TLP antigen on primary NSCLC culture cells. The data set is described as follows: Induction of TLP antigen expression on tumor cells by chemotherapy in vitro. In kind it is cell-based, human. The settings on record: 10:g/ml for 48 hours; for TLP status of TLP-positive cell population after treatment: etoposide and cis-platinum. The text has this:
The cells were processed fresh and after preparation of primary cultures (complete RPMI 1640 culture medium with the addition of FCS 10%).
Along with variation in TLP, other possible phenotype modifications (IL-2 rec (interleukin receptors), HLA-Dr (human leukocyte antigen), CD16 (lymphocyte sub-populations), etc.) induced by treatment with single or combined agents (chemotherapy, cytokines) were also studied.
In the case of TLP, freshly isolated tumor cells were obtained from a surgical NSCLC patient. After plating for 24 h and separation of fibroblasts, cells were resuspended for immunohistochemistry and cytofluorimetric assay. Briefly, CSH 419 antiserum was labeled with PE conjugated anti-rabbit IgG and incubated with the cells.
The freeing of TLP in the culture supernatant was checked using the ELISA test.

In data set [2] the test system is cytotoxic CD8 lymphocytes. The data set is described as follows: Stimulation of cytotoxic CD8 lymphocytes by synthetic polypeptide. It is filed as cell-based, human. The settings on record: only in patients suffering from NSCLC neoplasia.

Where a SMILES comes first, the peptide text is derived from it.

On to `COc1cc([C@@H]2c3cc4c(cc3[C@@H](O[C@@H]3O[C@@H]5CO[C@@H](C)O[C@H]5[C@H](O)[C@H]3O)[C@H]3COC(=O)[C@H]23)OCO4)cc(OC)c1O` [etoposide], for which, in data set [1], the “TLP status of TLP-negative cell population after treatment” value is listed as “became TLP-positive” and the “TLP status of TLP-positive cell population after treatment” value is reported as “remained TLP positive”.
`CC[C@H](C)[C@H](NC(=O)[C@H](CO)NC(=O)[C@H](C)NC(=O)[C@H](CCC(=O)O)NC(=O)[C@H](CCCCN)NC(=O)[C@H](CC(N)=O)NC(=O)[C@@H](NC(=O)[C@@H](N)CCCNC(=N)N)[C@@H](C)O)C(=O)O` [SEQ ID NO: 1, ArgThrAsnLysGluAlaSerIle] (H-RTNKEASI-OH; N-terminus and C-terminus assumed): the “stimulation of cytotoxic CD8 lymphocytes” value in data set [2] is on record as “specific stimulation of the cytotoxic CD8 lymphocytes”.
With `N.N.[Cl][Pt][Cl]` [cis-platinum], in data set [1], the “TLP status of TLP-negative cell population after treatment” value is reported as “became TLP-positive” and the “TLP status of TLP-positive cell population after treatment” value is given as “remained TLP positive”.

For the origin of these results see patent US20040022870A1, “Immunogenic TLP composition” (priority 1996, published 2004).
